Consider 28 compounds from patent US11839613B2, “Pyrimidine derivatives as PGE2 receptor modulators” (IDORSIA PHARMACEUTICALS LTD, priority 2017, dated 2023).

For one test, the target named is PTGER2 (EP2) (Homo sapiens (Human), UniProt P43116). The test is described as follows: hEP2 b-arrestin assay (PathHunter HEK 293 PTGER2 b-arrestin cells). Type of test: cell-based. Conditions: antagonistic activity, beta-arrestin assay; read-out: hEP2 b-arr IC50. As to the method: Plate is pre-incubated 15 minutes at 37° C. Then five microliters of PGE2 (final conc. 5 μM) are transferred into the assay plate. Plate is incubated 120 minutes at 37° C.
Sequence of PTGER2 (EP2) (P43116 whole entry): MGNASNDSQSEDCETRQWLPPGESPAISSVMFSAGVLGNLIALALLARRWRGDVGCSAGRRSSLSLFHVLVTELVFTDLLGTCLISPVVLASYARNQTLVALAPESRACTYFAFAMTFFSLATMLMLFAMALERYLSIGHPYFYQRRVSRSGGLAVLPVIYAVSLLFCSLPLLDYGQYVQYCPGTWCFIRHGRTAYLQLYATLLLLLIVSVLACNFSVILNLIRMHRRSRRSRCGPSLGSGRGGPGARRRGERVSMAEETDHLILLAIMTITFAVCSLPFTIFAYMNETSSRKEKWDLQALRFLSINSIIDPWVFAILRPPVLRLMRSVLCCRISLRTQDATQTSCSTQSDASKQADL
(each concentration is measured in duplicate)

The target of another test is EP2 (Homo sapiens (Human), UniProt P43116). As to the kind of experiment: hEP2 cAMP assay (SF295 glioblastoma cells, HTRF cAMP). Type of test: cell-based. Conditions: antagonistic activity. The method, boiled down: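 PGE2-driven cAMP accumulation was measured by HTRF in SF295 cells, which express endogenous EP2 only. Cells in assay buffer with 2 mM IBMX were pre-incubated 45 min at RT, then incubated 30 min at RT. Detection used competition between cellular cAMP and d2-cAMP for a cryptate anti-cAMP antibody.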
Sequence of EP2 (P43116 whole entry): as above
For orientation: cAMP levels reflect the balance of adenylyl cyclase and phosphodiesterase activity.

The next test deals with EP4 (Homo sapiens (Human), UniProt P35408). The test is described as follows: hEP4 cAMP assay (BT549 breast cancer cells, HTRF cAMP). It is filed as cell-based. The conditions noted are these: antagonistic activity, PGE2 6 nM. The method, boiled down:
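BT549 breast cancer cells (endogenous EP4) in HBSS/20 mM HEPES/0.2% BSA/2 mM IBMX preincubated 45 min at RT with compound, then stimulated 30 min at RT with 6 nM PGE2 (final). cAMP read by competitive HTRF immunoassay, signal inversely proportional to cAMP.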

A further test addresses PTGER4 (EP4) (Homo sapiens (Human), UniProt P35408). The test is described as follows: cell-based.

For orientation: IC50 means the concentration that gives 50% inhibition.

Sequence of EP4 (P35408 whole entry): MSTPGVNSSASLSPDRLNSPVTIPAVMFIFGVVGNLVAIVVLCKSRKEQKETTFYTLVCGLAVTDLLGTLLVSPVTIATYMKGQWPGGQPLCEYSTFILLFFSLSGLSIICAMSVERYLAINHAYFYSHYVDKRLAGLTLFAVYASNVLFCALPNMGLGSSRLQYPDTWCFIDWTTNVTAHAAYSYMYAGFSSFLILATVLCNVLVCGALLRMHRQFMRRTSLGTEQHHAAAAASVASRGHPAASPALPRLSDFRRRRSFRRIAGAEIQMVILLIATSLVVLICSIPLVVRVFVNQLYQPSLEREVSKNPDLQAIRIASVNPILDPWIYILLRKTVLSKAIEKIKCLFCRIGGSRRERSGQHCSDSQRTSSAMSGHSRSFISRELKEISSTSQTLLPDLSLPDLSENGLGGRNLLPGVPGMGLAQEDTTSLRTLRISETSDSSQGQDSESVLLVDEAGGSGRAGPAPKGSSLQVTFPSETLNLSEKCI
Sequence of PTGER4 (EP4) (P35408 whole entry): as above

Take `CCOc1cc(-c2cc(NCCc3cc(Cl)c4c(c3)OCCO4)ncn2)sc1C(=O)O` [Ex 51, 5-{6-[2-(8-Chloro-2,3-dihydro-benzo[1,4]dioxin-6-yl)-ethylamino]-pyrimidin-4-yl}-3-ethoxy-thiophene-2-carboxylic acid]: the IC50 at PTGER2 (EP2) came out at 0.23 µM; against EP2, 0.207 µM; against EP4, 0.025 µM; on PTGER4 (EP4), 0.022 µM.

As for `CCOc1cc(-c2cc(NCCc3cc(F)c4sccc4c3)ncn2)ccc1-c1noc(=O)[nH]1` [Example 451, 3-(2-Ethoxy-4-{6-[2-(7-fluoro-benzo[b]thiophen-5-yl)-ethylamino]-pyrimidin-4-yl}-phenyl)-[1,2,4]oxadiazol-5(4H)-one], the IC50 on PTGER2 (EP2) was 0.071 µM; at EP2, 0.66 µM; against EP4 (BT549 cells), 0.016 µM; at PTGER4 (EP4), 0.021 µM.

As for `CCCc1cc(-c2cc(NCCc3ccc4sccc4c3F)ncn2)ccc1CC(=O)O` [Example 386, (4-{6-[2-(4-Fluoro-benzo[b]thiophen-5-yl)-ethylamino]-pyrimidin-4-yl}-2-propyl-phenyl)-acetic acid], the IC50 was found to be 0.064 µM on PTGER2 (EP2), 0.453 µM at EP2, 0.054 µM on EP4 and 0.028 µM against PTGER4 (EP4).

`CCOc1cc(-c2cc(NCCc3c(OC)cc4occc4c3C)ncn2)ccc1CC(=O)O` [Ex 157, (2-Ethoxy-4-{6-[2-(6-methoxy-4-methyl-benzofuran-5-yl)-ethylamino]-pyrimidin-4-yl}-phenyl)-acetic acid]: the IC50 on PTGER2 (EP2) came to 0.007 µM; against EP2, 0.022 µM; against EP4 it was 0.156 µM; against PTGER4 (EP4) it was 0.089 µM.

Turning to `CCOc1cc(-c2cc(NCCc3ccc4sccc4c3)ncn2)ccc1C(=O)O` [Ex 155, 4-[6-(2-Benzo[b]thiophen-5-yl-ethylamino)-pyrimidin-4-yl]-2-ethoxy-benzoic acid], the IC50 on PTGER2 (EP2) is 0.232 µM; against EP2, 0.161 µM; on EP4, 0.151 µM; at PTGER4 (EP4), 0.301 µM.

Turning to `CCOc1cc(-c2cc(NCCc3ccc4[nH]ccc4c3)ncn2)sc1C(=O)O` [Ex 32, 3-Ethoxy-5-{6-[2-(1H-indol-5-yl)-ethylamino]-pyrimidin-4-yl}-thiophene-2-carboxylic acid], the IC50 stood at 0.199 µM at PTGER2 (EP2), 0.161 µM on EP2, 0.018 µM on EP4 and 0.056 µM at PTGER4 (EP4).

For `C#Cc1cc2ccccc2cc1CCNc1cc(-c2ccc(OCC(=O)O)c(OCC)c2)ncn1` [Ex 103, (2-Ethoxy-4-{6-[2-(3-ethynyl-naphthalen-2-yl)-ethylamino]-pyrimidin-4-yl}-phenoxy)-acetic acid], the IC50 was 0.051 µM on PTGER2 (EP2), 0.089 µM against EP2, 0.071 µM at EP4 and 0.018 µM against PTGER4 (EP4).

`COc1cc2occc2cc1CCNc1cc(-c2ccc(C(=O)O)c(SC)c2)ncn1` [Ex 193, 4-{6-[2-(6-Methoxy-benzofuran-5-yl)-ethylamino]-pyrimidin-4-yl}-2-methylsulfanyl-benzoic acid]: the IC50 at PTGER2 (EP2) stood at 0.01 µM; against EP2 it was 0.012 µM; on EP4, 0.211 µM; at PTGER4 (EP4) it was 0.349 µM.

Regarding `CCOc1cc(-c2cc(NCCc3cc4cccnc4cc3F)ncn2)sc1-c1noc(=O)[nH]1` [Example 348, 3-(3-Ethoxy-5-{6-[2-(7-fluoro-quinolin-6-yl)-ethylamino]-pyrimidin-4-yl}-thiophen-2-yl)-[1,2,4]oxadiazol-5(4H)-one], the IC50 worked out at 0.172 µM on PTGER2 (EP2), 0.113 µM against EP2, 0.008 µM at EP4 and 0.002 µM at PTGER4 (EP4).

For `CCOc1cc(-c2cc(NCCc3cc4c(cc3SC)OCCO4)ncn2)sc1C(=O)O` [Ex 78, 3-Ethoxy-5-{6-[2-(7-methylsulfanyl-2,3-dihydro-benzo[1,4]dioxin-6-yl)-ethylamino]-pyrimidin-4-yl}-thiophene-2-carboxylic acid], the IC50 at PTGER2 (EP2) was 0.141 µM; at EP2, 0.219 µM; at EP4, 0.044 µM; at PTGER4 (EP4) it was 0.021 µM.

`CCOc1cc(-c2cc(NCCc3ccc4c(c3)OCO4)ncn2)sc1C(=O)O` [Ex 111, 5-[6-(2-Benzo[1,3]dioxol-5-yl-ethylamino)-pyrimidin-4-yl]-3-ethoxy-thiophene-2-carboxylic acid]: the IC50 at PTGER2 (EP2) came to 0.115 µM; on EP2 it was 0.049 µM; against EP4 it was 0.081 µM; on PTGER4 (EP4) it was 0.089 µM.

On to `CCOc1cc(-c2cc(NCCc3ccc4sccc4c3)ncn2)sc1C(=O)O` [Ex 5, 5-[6-(2-Benzo[b]thiophen-5-yl-ethylamino)-pyrimidin-4-yl]-3-ethoxy-thiophene-2-carboxylic acid], for which the IC50 worked out at 0.039 µM on PTGER2 (EP2), 0.028 µM against EP2, 0.003 µM on EP4 and 0.005 µM on PTGER4 (EP4).

On to `CSc1cc(-c2cc(NCCc3ccc4sccc4c3)ncn2)ccc1C(=O)O` [Ex 132, 4-[6-(2-Benzo[b]thiophen-5-yl-ethylamino)-pyrimidin-4-yl]-2-methylsulfanyl-benzoic acid], for which the IC50 at PTGER2 (EP2) amounted to 0.082 µM; against EP2, 0.066 µM; on EP4 it was 0.107 µM; on PTGER4 (EP4), 0.161 µM.

Turning to `Cc1c(CCNc2cc(-c3ccc(C(=O)O)c(OC(F)F)c3)ncn2)ccc2ccccc12` [Ex 83, 2-Difluoromethoxy-4-{6-[2-(1-methyl-naphthalen-2-yl)-ethylamino]-pyrimidin-4-yl}-benzoic acid], the IC50 is 0.274 µM on PTGER2 (EP2), 0.07 µM on EP2, 0.047 µM at EP4 and 0.255 µM on PTGER4 (EP4).

As to `CCOc1cc(-c2cc(NCCc3ccc4ccccc4c3Cl)ncn2)sc1C(=O)O` [Ex 90, 5-{6-[2-(1-Chloro-naphthalen-2-yl)-ethylamino]-pyrimidin-4-yl}-3-ethoxy-thiophene-2-carboxylic acid], the values for the IC50 on EP2, at EP4 and against PTGER4 (EP4) were 0.378 µM, 0.055 µM and 0.026 µM, respectively.

As for `CCOc1cc(-c2cc(NCCc3ccc4ccn(C)c4c3)ncn2)ccc1OCC(=O)O` [Ex 207], the IC50 is 0.673 µM at EP2, 0.248 µM at EP4 and 0.234 µM on PTGER4 (EP4).

Take `CSc1cc(-c2cc(NCCc3ccc4ccccc4c3)ncn2)ccc1C(=O)O` [Ex 219, 2-Methylsulfanyl-4-[6-(2-naphthalen-2-yl-ethylamino)-pyrimidin-4-yl]-benzoic acid]: the IC50 was 0.486 µM against EP2, 0.129 µM at EP4 and 0.202 µM against PTGER4 (EP4).

`CCOc1cc(-c2cc(NCCc3ccc4c(c3)c(C)cn4C)ncn2)sc1C(=O)O` [Ex 133]: the IC50 against EP2 worked out at 0.482 µM; on EP4, 0.109 µM; on PTGER4 (EP4) it was 0.042 µM.

Consider `CCOc1cc(-c2cc(NCCc3ccc4c(c3)CCC4)ncn2)sc1C(=O)O` [Ex 44, 3-Ethoxy-5-[6-(2-indan-5-yl-ethylamino)-pyrimidin-4-yl]-thiophene-2-carboxylic acid], for which the IC50 was 0.283 µM against EP2, 0.021 µM on EP4 and 0.024 µM against PTGER4 (EP4).

Regarding `CSc1cc(-c2cc(NCCc3ccc4c(c3)OCCO4)ncn2)ccc1C(=O)O` [Ex 310], the IC50 was found to be 0.564 µM against EP2, 0.683 µM against EP4 and 0.937 µM at PTGER4 (EP4).

For the compound `CCOc1cc(-c2cc(NCCc3cc4c(cc3SC)OCCO4)ncn2)ccc1OCC(=O)O` [Ex 145], the figures for the IC50 against EP2, on EP4 and at PTGER4 (EP4) were 0.519 µM, 0.134 µM and 0.09 µM, respectively.

For `CCOc1cc(-c2cc(NCCc3ccc4ccccc4c3)ncn2)sc1C(=O)O` [Ex 36, 3-Ethoxy-5-[6-(2-naphthalen-2-yl-ethylamino)-pyrimidin-4-yl]-thiophene-2-carboxylic acid], the half-inhibitory concentration (IC50) is 0.557 µM on EP2, 0.018 µM on EP4 and 0.02 µM against PTGER4 (EP4).

As to `CSc1cc(-c2cc(NCCc3ccc4ccsc4c3)ncn2)ccc1C(=O)O` [Ex 176], the IC50 on EP2 stood at 0.293 µM; on EP4, 0.185 µM; against PTGER4 (EP4), 0.179 µM.

With `CCOc1cc(-c2cc(NCCc3cc4ccccc4cc3C)ncn2)ccc1C(=O)O` [Ex 240, 2-Ethoxy-4-{6-[2-(3-methyl-naphthalen-2-yl)-ethylamino]-pyrimidin-4-yl}-benzoic acid], the IC50 came out at 0.816 µM on EP2, 0.346 µM at EP4 and 0.598 µM against PTGER4 (EP4).

For `CCSc1cc(-c2cc(NCCc3c(F)cc4ncccc4c3F)ncn2)ccc1C(=O)O` [Ex 153], the IC50 on EP2 turned out to be 0.34 µM; on EP4 it was 0.146 µM; against PTGER4 (EP4) it was 0.757 µM.

`CCOc1cc(-c2cc(NCCc3ccc4ccccc4c3C)ncn2)ccc1OCC(=O)O` [Ex 166]: the IC50 against EP2 is 0.297 µM; on EP4 it was 0.165 µM; against PTGER4 (EP4) it was 0.049 µM.

On to `CCOc1cc(-c2cc(NCCc3cc4ccccc4cc3OC)ncn2)ccc1OCC(=O)O` [Ex 122, (2-Ethoxy-4-{6-[2-(3-methoxy-naphthalen-2-yl)-ethylamino]-pyrimidin-4-yl}-phenoxy)-acetic acid], for which the results for the IC50 against EP2, against EP4 and against PTGER4 (EP4) were 0.324 µM, 0.095 µM and 0.019 µM, respectively.

For `CCOc1cc(-c2cc(NCCc3cc4c(cc3OC)OCCO4)ncn2)ccc1CC(=O)O` [Ex 175], the IC50 on EP2 was determined as 0.301 µM; at EP4 it was 0.185 µM; on PTGER4 (EP4), 0.179 µM.
